Data from ChEMBL document CHEMBL5465560, “Selectivity Literature for EUbOPEN Chemogenomic Library” (2024).

How the values were obtained:
[1] = target: Dual specificity tyrosine-phosphorylation-regulated kinase 1B (Homo sapiens, UniProt Q9Y463); test: Selectivity interaction (Enzymatic assay (Eurofins)) EUB0001049a DYRK1B
[2] = target: MAP/microtubule affinity-regulating kinase 3 (Homo sapiens) (UniProt P27448); test: Selectivity interaction (KinomeScan (DiscoverX)) EUB0000666a MARK3; settings: at 10 µM
[3] = target: T1, Mitogen-activated protein kinase kinase kinase 19 (Homo sapiens) (UniProt Q56UN5); test: Selectivity interaction (KinomeScan (DiscoverX)) EUB0000229b MAP3K19; settings: at 10 µM
T1 sequence (whole entry): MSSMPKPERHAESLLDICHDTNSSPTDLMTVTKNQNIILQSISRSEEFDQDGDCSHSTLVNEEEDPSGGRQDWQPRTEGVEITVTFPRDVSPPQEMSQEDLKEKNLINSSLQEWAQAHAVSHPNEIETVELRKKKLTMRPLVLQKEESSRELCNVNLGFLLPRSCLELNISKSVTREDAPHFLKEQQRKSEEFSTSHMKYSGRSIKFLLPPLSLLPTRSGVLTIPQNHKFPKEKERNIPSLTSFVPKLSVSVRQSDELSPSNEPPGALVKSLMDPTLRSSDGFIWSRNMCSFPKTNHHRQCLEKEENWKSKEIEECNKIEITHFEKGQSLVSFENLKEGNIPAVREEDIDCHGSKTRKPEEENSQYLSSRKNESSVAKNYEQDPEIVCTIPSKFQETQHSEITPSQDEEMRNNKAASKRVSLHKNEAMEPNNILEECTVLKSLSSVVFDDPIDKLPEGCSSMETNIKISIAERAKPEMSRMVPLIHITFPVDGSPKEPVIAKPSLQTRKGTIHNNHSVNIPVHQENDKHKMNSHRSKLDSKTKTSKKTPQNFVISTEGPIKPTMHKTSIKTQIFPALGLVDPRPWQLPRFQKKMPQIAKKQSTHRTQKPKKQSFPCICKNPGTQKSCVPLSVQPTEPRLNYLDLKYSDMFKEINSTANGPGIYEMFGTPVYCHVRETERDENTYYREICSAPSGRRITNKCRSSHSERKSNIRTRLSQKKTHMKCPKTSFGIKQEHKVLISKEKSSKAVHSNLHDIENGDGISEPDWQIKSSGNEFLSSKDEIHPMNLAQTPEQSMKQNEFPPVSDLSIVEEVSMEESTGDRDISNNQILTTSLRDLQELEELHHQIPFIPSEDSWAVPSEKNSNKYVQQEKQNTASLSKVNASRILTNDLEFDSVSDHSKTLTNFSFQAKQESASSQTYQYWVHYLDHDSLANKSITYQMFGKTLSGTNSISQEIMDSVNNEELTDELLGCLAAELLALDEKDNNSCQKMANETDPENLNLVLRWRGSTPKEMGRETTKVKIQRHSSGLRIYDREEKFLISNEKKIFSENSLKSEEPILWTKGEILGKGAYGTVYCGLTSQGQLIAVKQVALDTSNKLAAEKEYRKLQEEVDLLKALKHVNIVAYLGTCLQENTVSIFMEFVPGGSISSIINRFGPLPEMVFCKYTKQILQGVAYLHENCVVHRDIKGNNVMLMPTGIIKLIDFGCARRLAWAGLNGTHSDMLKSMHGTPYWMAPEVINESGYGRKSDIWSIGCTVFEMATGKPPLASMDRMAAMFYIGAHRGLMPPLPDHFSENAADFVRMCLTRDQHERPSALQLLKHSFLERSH

[4] = target: Mitogen-activated protein kinase 9 (Homo sapiens, UniProt P45984); test: Selectivity interaction (KinomeScan (DiscoverX)) EUB0000229b MAPK9; settings: at 10 µM
[5] = target: Macrophage colony-stimulating factor 1 receptor (Homo sapiens) (UniProt P07333); test: Selectivity interaction (KinomeScan (DiscoverX)) EUB0001079a CSF1R; settings: at 1 µM
[6] = target: Transient receptor potential cation channel subfamily M member 6 (Homo sapiens) (UniProt Q9BX84); test: Selectivity interaction (KinomeScan (DiscoverX)) EUB0001079a TRPM6; settings: at 1 µM
[7] = target: Cyclin-dependent kinase-like 1 (Homo sapiens) (UniProt Q00532); test: Selectivity interaction (Kinase panel (DSF assay)) EUB0001558a CDKL1
Adenosine receptor A1 = Adenosine receptor A1 (Homo sapiens, UniProt P30542); test: Selectivity interaction (Adenosine 1 receptor binding assay, human recombinant) EUB0000877a ADORA1
[8] = target: Wee1-like protein kinase (Homo sapiens) (UniProt P30291); test: Selectivity interaction (Ambit KINOMEscan and KiNATiv profiling in Jurkat cells) EUB0000090b WEE1; format: cell-based; settings: at 1 µM
[9] = target: LIM domain kinase 2 (Homo sapiens) (UniProt P53671); test: Selectivity interaction (KinomeScan (DiscoverX)) EUB0000045b LIMK2
[10] = target: Myosin-IIIa (Homo sapiens) (UniProt Q8NEV4); test: Selectivity interaction (KinomeScan (DiscoverX)) EUB0000655a MYO3A; settings: at 10 µM
[11] = target: Protein-tyrosine kinase 2-beta (Homo sapiens) (UniProt Q14289); test: Selectivity interaction (Kinase panel (Z-LYTE Assay)) EUB0001632a PTK2B; settings: at 10 µM
[12] = target: T2, Serine/threonine-protein kinase Sgk1 (Homo sapiens) (UniProt O00141); test: Selectivity interaction (Kinase panel (Z-LYTE Assay)) EUB0001632a SGK1; settings: at 10 µM
T2 sequence (whole entry): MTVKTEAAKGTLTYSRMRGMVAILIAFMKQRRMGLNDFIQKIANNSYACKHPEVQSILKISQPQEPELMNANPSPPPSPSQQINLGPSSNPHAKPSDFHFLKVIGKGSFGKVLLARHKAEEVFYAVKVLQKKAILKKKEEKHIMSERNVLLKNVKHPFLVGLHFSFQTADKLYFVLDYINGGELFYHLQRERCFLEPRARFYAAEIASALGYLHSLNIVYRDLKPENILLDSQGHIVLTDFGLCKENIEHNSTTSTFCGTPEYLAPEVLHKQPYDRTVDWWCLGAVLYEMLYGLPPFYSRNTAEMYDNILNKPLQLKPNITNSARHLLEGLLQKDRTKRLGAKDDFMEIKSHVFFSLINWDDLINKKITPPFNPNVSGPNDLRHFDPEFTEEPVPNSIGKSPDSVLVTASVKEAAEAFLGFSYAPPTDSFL

[13] = target: Tyrosine-protein kinase Lck (Homo sapiens, UniProt P06239); test: Selectivity interaction (Panel of non-epigenetic targets (kinases, GPCRs, ion channels, and transporters, Eurofins) ) EUB0000271b LCK; settings: at 1 µM
Chain of Tyrosine-protein kinase Lck (P06239 2-509 limits assumed): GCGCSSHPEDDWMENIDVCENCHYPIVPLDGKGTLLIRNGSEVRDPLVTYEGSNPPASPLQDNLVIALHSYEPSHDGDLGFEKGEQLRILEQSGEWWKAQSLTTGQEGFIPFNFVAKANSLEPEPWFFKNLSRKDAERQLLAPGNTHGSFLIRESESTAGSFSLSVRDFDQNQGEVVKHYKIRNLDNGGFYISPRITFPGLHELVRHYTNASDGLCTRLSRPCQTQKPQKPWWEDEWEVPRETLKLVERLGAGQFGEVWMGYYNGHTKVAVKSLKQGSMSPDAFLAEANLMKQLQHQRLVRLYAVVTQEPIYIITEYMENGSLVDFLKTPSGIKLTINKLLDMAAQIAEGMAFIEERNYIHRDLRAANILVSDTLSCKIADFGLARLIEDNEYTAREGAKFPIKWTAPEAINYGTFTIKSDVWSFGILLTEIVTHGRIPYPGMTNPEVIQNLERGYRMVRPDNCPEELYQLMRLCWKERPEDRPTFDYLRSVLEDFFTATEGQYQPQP

Chain of LIM domain kinase 2 (Homo sapiens) (P53671 whole entry, looked up, the tested form may be a part): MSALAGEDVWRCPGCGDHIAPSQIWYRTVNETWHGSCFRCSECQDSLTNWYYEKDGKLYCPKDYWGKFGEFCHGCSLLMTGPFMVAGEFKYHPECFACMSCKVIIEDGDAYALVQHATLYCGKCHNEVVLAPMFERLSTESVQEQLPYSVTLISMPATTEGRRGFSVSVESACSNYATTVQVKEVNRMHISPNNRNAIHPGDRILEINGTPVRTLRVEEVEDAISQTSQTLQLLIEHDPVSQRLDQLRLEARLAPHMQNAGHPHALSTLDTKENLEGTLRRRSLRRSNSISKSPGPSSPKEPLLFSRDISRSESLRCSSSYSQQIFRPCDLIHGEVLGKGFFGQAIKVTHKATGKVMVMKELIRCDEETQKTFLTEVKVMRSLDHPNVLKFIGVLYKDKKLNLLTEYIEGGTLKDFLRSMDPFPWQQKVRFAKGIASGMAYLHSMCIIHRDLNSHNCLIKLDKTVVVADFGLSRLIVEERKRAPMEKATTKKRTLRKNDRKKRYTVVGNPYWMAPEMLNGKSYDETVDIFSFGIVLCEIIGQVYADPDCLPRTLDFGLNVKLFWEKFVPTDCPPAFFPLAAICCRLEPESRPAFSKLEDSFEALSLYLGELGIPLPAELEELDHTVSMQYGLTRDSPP
Chain of Protein-tyrosine kinase 2-beta (Homo sapiens) (Q14289 whole entry, looked up): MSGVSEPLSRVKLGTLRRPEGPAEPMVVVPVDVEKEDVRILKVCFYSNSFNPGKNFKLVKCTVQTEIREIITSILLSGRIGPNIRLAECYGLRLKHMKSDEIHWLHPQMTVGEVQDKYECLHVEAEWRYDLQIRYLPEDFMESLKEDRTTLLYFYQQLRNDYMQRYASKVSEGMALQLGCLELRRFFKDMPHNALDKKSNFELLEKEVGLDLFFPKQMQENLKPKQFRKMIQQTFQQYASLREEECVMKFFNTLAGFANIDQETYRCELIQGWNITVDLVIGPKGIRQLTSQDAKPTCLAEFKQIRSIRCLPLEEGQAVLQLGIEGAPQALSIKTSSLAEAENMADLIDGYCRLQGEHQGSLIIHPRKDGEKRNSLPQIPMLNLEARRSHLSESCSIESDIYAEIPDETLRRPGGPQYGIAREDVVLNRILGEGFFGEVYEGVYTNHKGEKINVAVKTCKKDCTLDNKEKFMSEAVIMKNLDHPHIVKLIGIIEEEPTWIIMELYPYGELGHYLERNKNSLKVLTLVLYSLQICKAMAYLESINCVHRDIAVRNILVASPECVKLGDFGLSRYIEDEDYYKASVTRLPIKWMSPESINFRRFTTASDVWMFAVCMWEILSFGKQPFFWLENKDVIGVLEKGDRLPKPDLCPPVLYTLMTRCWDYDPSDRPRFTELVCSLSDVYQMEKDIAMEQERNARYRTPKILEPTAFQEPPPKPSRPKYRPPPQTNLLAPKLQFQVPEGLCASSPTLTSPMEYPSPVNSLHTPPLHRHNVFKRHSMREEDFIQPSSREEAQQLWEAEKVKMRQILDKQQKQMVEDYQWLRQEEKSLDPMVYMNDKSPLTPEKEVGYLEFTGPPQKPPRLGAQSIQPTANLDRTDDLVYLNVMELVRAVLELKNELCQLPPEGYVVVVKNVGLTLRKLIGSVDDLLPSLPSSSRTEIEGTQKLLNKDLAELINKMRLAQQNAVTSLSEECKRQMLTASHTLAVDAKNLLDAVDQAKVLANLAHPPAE
Chain of Adenosine receptor A1 (P30542 whole entry): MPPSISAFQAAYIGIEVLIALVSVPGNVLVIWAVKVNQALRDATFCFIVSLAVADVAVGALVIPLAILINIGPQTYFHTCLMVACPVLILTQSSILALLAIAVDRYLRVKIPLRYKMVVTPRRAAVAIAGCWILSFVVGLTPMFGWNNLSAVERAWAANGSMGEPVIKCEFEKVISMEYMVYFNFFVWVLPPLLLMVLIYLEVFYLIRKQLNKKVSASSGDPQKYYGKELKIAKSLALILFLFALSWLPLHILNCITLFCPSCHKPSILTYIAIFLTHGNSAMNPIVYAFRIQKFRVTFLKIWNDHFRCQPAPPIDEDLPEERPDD
Chain of Transient receptor potential cation channel subfamily M member 6 (Homo sapiens) (Q9BX84 whole entry): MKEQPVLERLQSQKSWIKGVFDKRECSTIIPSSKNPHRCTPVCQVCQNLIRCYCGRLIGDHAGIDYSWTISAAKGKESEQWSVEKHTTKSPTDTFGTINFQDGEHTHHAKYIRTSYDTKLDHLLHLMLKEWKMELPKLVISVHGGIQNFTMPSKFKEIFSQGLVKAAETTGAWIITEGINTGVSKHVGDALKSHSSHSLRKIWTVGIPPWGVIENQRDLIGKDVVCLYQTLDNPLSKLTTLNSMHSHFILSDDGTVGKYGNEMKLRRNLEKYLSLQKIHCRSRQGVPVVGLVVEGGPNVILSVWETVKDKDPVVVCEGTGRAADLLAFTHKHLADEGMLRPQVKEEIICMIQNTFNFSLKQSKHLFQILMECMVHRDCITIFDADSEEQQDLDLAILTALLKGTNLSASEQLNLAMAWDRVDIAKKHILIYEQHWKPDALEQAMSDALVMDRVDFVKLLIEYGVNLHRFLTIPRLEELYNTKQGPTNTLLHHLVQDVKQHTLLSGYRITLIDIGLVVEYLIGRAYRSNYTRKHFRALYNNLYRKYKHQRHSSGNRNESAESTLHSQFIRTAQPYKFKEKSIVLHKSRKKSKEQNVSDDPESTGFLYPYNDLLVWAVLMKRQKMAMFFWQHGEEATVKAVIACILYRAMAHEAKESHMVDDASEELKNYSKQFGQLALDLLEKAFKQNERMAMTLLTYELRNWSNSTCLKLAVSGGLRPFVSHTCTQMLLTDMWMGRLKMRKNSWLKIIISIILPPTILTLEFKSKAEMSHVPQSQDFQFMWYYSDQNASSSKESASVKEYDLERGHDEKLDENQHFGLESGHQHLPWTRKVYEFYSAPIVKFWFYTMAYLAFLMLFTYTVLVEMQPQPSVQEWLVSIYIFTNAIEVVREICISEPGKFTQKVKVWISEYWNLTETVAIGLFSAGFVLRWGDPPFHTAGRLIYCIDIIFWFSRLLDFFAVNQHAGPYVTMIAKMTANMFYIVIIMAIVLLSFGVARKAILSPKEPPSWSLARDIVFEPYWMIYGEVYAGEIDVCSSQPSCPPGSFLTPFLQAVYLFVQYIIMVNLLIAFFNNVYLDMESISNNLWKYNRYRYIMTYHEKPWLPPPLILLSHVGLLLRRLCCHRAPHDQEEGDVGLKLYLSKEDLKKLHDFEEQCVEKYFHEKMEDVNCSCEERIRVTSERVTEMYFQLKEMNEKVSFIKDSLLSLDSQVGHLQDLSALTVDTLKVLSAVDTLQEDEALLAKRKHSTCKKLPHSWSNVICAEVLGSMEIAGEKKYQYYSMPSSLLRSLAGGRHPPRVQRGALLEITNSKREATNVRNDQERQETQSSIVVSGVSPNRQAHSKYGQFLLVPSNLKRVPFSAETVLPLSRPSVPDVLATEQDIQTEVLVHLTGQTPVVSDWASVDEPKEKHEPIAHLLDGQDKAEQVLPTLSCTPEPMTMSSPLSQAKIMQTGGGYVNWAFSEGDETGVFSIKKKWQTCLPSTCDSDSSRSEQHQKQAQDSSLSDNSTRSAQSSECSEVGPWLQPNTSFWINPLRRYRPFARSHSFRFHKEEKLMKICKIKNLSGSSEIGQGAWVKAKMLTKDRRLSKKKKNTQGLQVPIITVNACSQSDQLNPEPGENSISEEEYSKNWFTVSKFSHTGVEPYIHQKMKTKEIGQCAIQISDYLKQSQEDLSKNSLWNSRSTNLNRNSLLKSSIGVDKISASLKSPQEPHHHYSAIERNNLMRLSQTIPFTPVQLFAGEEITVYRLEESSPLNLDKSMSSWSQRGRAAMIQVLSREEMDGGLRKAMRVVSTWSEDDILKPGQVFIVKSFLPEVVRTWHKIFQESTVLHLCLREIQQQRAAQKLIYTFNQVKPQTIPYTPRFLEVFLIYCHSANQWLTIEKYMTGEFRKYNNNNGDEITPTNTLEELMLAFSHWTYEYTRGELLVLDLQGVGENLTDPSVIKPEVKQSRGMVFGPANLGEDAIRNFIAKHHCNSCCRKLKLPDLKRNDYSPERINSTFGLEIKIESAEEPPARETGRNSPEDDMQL
Chain of Mitogen-activated protein kinase 9 (P45984 whole entry, looked up): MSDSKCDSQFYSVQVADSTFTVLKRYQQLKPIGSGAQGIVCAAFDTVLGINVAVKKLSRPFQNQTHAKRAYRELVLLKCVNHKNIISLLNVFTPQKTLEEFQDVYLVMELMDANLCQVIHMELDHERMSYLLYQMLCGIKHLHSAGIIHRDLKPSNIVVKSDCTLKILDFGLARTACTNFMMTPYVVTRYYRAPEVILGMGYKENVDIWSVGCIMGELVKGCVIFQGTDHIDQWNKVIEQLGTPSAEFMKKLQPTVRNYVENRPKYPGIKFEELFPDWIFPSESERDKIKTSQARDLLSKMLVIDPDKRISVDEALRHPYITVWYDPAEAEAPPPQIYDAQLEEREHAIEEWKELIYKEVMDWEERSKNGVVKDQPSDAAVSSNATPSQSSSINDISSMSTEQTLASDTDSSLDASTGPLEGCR

Compound: COc1cc(Nc2nc(C)cc(-c3cnn4nc(OC)ccc34)n2)cc(C(F)(F)F)c1
- IC50 [1]: > 10 µM

Compound: O=C(NOC[C@H](O)CO)c1ccc(F)c(F)c1Nc1ccc(I)cc1F
- % of control [2]: 91%

Compound: COc1cc(N(C)c2ccnc3ccc(C(F)(F)F)cc23)cc(OC)c1OC
- % binding [3]: 94%
- % binding [4]: 80%

Compound: Nc1cnc(N2CCc3cc(S(=O)(=O)Nc4c(F)cc(Cl)cc4F)cc(N4CCCC4=O)c32)nc1 [TP-020n]
- % of control [5]: 100%
- % of control [6]: 93%

Compound: CC(C)(O)[C@H](F)CN1Cc2cc(NC(=O)c3cnn4cccnc34)c(N3CCOCC3)cc2C1=O
- dTM [7]: -0.4 K

Compound: CCC(=O)N1CC[C@H](Nc2ncnc3c2CN(c2cnc(OC)c(C(F)(F)F)c2)CC3)C1 [LENIOLISIB]
- IC50 (Adenosine receptor A1): > 30 µM

Compound: CN(C)C/C=C/C(=O)Nc1ccc(C(=O)N2CCCC(Nc3ncc(Cl)c(-c4c[nH]c5ccccc45)n3)C2)cc1 (stereo not given)
- % of control [8]: 77%

Compound: C=CC(=O)Nc1cc(-n2c(=O)ccc3cnc4ccc(-c5ccc(NS(C)(=O)=O)cc5)cc4c32)ccc1C
- % of control ([9]; at 1 µM): 92%
- % of control ([9]; at 10 µM): 100%

Compound: CN(C)CCOc1ccc(-c2nc(-c3ccncc3)c(-c3ccc4c(c3)CC/C4=N\O)[nH]2)cc1
- % of control [10]: 94%

Compound: Cn1cc(-n2cnc3c(NCc4nc5cc(Cl)c(Cl)cc5[nH]4)nc(N4CCOCC4)nc32)cn1
- % of control [11]: 6.24%
- % of control [12]: 28%

Compound: Cc1cc(C)cc([C@@H]2c3cc(C)ccc3NC(=O)CN2C(=O)c2ccc(Br)s2)c1
- % of inhibition [13]: 1%
